Reference: patent publication US11382947B2, “Targeting G3BP proteins to accelerate nerve regeneration” (University of South Carolina, priority 2017, dated 2022)
“Also recorded” adds a separate entry of the source.

Legend:
Format in all cases: cell-based, rat
DRG neurons [1] = experiment: Axon growth of dissociated DRG neuron cultures treated with Tat-fused G3BP1 peptides
Experimental: For primary neuronal cultures, L4-5 DRG were harvested in Hybernate-A medium (BrainBits) and then dissociated as known to those of skill in the art. After centrifugation and washing in DMEM/F12 (Life Technologies), cells were resuspended in DMEM/F12, 1×N1 supplement (Sigma), 10% fetal bovine serum (Hyclone), and 10 μM cytosine arabinoside (Sigma). Dissociated DRGs were plated immediately on laminin/poly-L-lysine-coated coverslips or transfected (see below) and then plated on coated coverslips. […] Neurite outgrowth was assessed 24 h after addition of peptides. For the cortical cultures, 10 μM peptide was applied to the axonal compartment at 3 d in vitro (DIV) and axonal growth was assessed at 6 DIV. For neurite outgrowth, images from 60 h DRG cultures were analyzed for neurite outgrowth using WIS-Neuromath. Axon morphology was visualized using GFP and/or NF immunofluorescence as described.

[2] = test system: axonal mRNA translation in DRG neurons; experiment: FRAP of axonally targeted translation reporters in DRG neurons; settings: G3BP1-overexpressing DRGs, 10 μM peptide; FIG. 14C
Experimental: FRAP was used to test for axonal mRNA protein synthesis using diffusion-limited GFP^MYR and mCherry^MYR reporters as described with minor modifications. In each case, DRG neurons were co-transfected with […]+mCherry^MYR5'/3'gap43 or […]β1+mCherry^MYR5'/3'gap43 so that recovery of both reporters could be analyzed simultaneously. Cells were maintained at 37° C., 5% CO2 during imaging sequences. 488 nm and 514 nm laser lines on Leica SP8X confocal microscope were used to bleach GFP and mCherry signals, respectively (Argon laser at 70% power, pulsed every 0.82 sec for 80 frames). Pinhole was set to 3 Airy units to ensure full thickness bleaching and acquisition (63×/1.4 NA oil immersion objective). Prior to photobleaching, neurons were imaged every 60 sec for 2 min to acquire baseline fluorescence the region of interest (ROI; 15% laser power, 498-530 nm for GFP and 565-597 nm for mCherry emissions, respectively). The same excitation and emission parameters were used to assess recovery over 15 min post-bleach with images acquired at 30 sec intervals. To determine if fluorescence recovery in axons was from translation, cultures were treated with 150 μg/ml cycloheximide (Sigma) or 100 μM anisomycin (Sigma) for 30 min. prior to photobleaching for […]+mCherry^MYR5'/3'gap43 and […] transfected DRGs, respectively. For peptide treatments, G3BP1-mCh transfected DRG neurons were treated with 10 μM G3BP1 peptides after acquiring the baseline expression values. Photobleaching followed by analyses of recovery was performed after 30 min of peptide exposure. Fluorescent intensities in the ROIs were calculated by the Leica LASX software. For normalizing across experiments, fluorescence intensity value at t=0 min post-bleach from each image sequence was set as 0%. The percentage of fluorescence recovery at each time point after photobleaching was then calculated by normalizing relative to the pre-bleach fluorescence intensity (set at 100%).

[3] = test system: protein synthesis in DRG neurons; experiment: Puromycinylation assay for newly synthesized proteins in DRG neurons; settings: peptide treatment, compared to control and 168-189 peptide, FIG. 12D
Experimental: To visualize newly synthesized proteins in cultured neurons, the current disclosure used the Click-iT® Plus OPP Protein Synthesis Assay Kit per manufacturer's instructions (Invitrogen/Life Technologies). Briefly, 3 DIV cultures were incubated with 20 μM O-propargyl-puromycin (OPP) for 30 min at 37° C. OPP-labeled proteins were detected by crosslinking with Alexa Fluor-594 picolyl azide molecule. Coverslips were then mounted with Prolong Gold Antifade (Invitrogen) and imaged with Leica DMI6000 epifluorescent microscope as above. ImageJ was used to quantify the Puromycinylation signals in distal axons and cell bodies.

[4] = test system: axonal G3BP1-mCh aggregates; experiment: Live cell imaging of G3BP1-mCherry granules in DRG axons
Experimental: DRG neurons were transfected with G3BP1-mCherry, and 36 h later distal axons were imaged using Leica SP8X confocal microscope with environmental chamber maintained at 37° C., 5% CO2 (with 63×/1.4 NA oil immersion objective). Confocal pinhole was set to 0.43 airy units. G3BP1-mCherry signals were imaged in axon shaft every 2 sec for 100 frames (at 540 nm excitation and 23% white light laser power; 565-597 nm emission). To study the effect of the G3BP1 190-208 peptide on the G3BP1-mCherry granules, 10 μM FITC-conjugated peptide was added to the media and 15 min later imaging was continued. For G3BP1-mCherry aggregates, a 100 μm of the axon shaft was considered (≥200 μm from cell body). Thresholding was applied to acquired image sequences using ImageJ to generate binary masks. ImageJ particle analyzer was used for analysis. G3BP1 aggregates with area of ≥1 μm2 were considered as SG-like structures. For analyzing the G3BP1 aggregate velocity, ImageJ […] plug-in was used.

cortical neurons = experiment: Axon growth of cortical neurons in microfluidic devices, peptide applied to axonal compartment; settings: 10 μM peptide applied to axonal compartment at 3 DIV, assessed at 6 DIV; FIG. 11C
Experimental: For cortical neuron cultures, E18 cortices were dissected in Hibernate E (BrainBits) and dissociated using the Neural Tissue Dissociation kit (Miltenyi Biotec). […] After washing and centrifugation, neurons were seeded at a density of 1×10^5 cells per poly-D-lysine-coated microfluidic device (Xona Microfluidics). NbActive-1 medium (BrainBits) supplemented with 100 U/ml of Penicillin-Streptomycin (Life Technologies), 2 mM L-Glutamine (Life Technologies), and 1×[…] supplement (R&D Systems) was used as culture medium. For peptide treatments, 10 μM Tat-fused peptides were added to dissociated DRG cultures at 2 or 12 h after plating. Neurite outgrowth was assessed 24 h after addition of peptides. For the cortical cultures, 10 μM peptide was applied to the axonal compartment at 3 d in vitro (DIV) and axonal growth was assessed at 6 DIV.

DRG neurons [5] = experiment: Axon growth of DRG neurons transfected with G3BP1 constructs or siRNA; settings: siRNA-mediated knockdown, 100 nM siRNA vs. control siRNA; FIG. 15C
Experimental: For primary neuronal cultures, L4-5 DRG were harvested in Hybernate-A medium (BrainBits) and then dissociated as known to those of skill in the art. After centrifugation and washing in DMEM/F12 (Life Technologies), cells were resuspended in DMEM/F12, 1×N1 supplement (Sigma), 10% fetal bovine serum (Hyclone), and 10 μM cytosine arabinoside (Sigma). Dissociated DRGs were plated immediately on laminin/poly-L-lysine-coated coverslips or transfected (see below) and then plated on coated coverslips.
For DRG neuron transfection, dissociated ganglia were pelleted by centrifugation at 100×g for 5 min and resuspended in ‘nucleofector solution’ (Rat Neuron Nucleofector kit; Lonza). 5-7 μg plasmid was electroporated using an AMAXA Nucleofector apparatus (program SCN-8; Lonza). For siRNA transfection, 100 nM siRNAs (Dharmacon) were used with DharmaFECT 3 reagent and incubated for 36 h. G3BP1 siRNA sequence: 5′ […] 3′. Non-targeting siRNAs (siCon) were as control. RTddPCR was used to test the efficiency of depletion (see below). HEK293T cells were transfected using Lipofectamine® 2000 per manufacturer's instructions (Invitrogen). AAV5 preparations were titrated in DRG cultures by incubating with […] particles of AAV5 overnight.
For neurite outgrowth, images from 60 h DRG cultures were analyzed for neurite outgrowth using WIS-Neuromath. […]

[6] = 10 μM peptide added to DRG cultures immediately after plating, FIG. 16B

Substance | axon length (DRG neurons [1]; [6]) | axonal translation of GFPMYR5′/3′impβ1 mRNA [2] | axonal translation of GFPMYR5′/3′nrn1 mRNA [2] | axonal translation of mChMYR5′/3′gap43 mRNA [2] | axonal protein synthesis (Puro incorporation in DRG axons) ([3]; listed as 190-208 G3BP1 peptide) | axonal protein synthesis (Puro incorporation in DRG axons) ([3]; listed as G3BP1 190-208 peptide) | axonal G3BP1-mCh aggregates (density along 100 μm axon) ([4]; 10 μM peptide, within 15 min, FIG. 12G) | size of remaining SG-like structures in axons ([4]; after 10 μM peptide treatment, 15 min, FIG. 12H) | motility of remaining aggregates ([4]; after peptide treatment vs. control conditions) | number of neurites per neuron (DRG neurons [1]; [6]) | axon length (DRG neurons [1]; 7 d injury-conditioned (pre-injured) DRG neurons, peptide added at 12 h, assessed at 36 h, FIG. 11C) | axon length (DRG neurons [1]; naive DRG neurons, delayed application, peptide added at 12 h, assessed at 36 h, FIG. 11C) | axon growth (cortical neurons) | axon growth (DRG neurons [5])
Glu Glu Ser Glu Glu Glu Val Glu Glu Pro Glu Glu Arg Gln Gln Ser Pro Glu Val Val Tvr Glv Asn Lvs Lvs Asn Asn Gln Asn Asn Asn [147-166 peptide] | increased axon length | – | – | – | – | – | – | – | – | – | – | – | – | –
Tvr Glv Asn Lvs Lvs Asn Asn Asn Gln Asn Asn Asn Val Val Glu Pro Glu Pro Glu Pro Glu Pro Glu Pro Glu Pro Glu Pro Val Ser [190-208 peptide] | increased axon length | did not affect translation | significantly rescued axonal translation | did not affect translation | significantly increased | increased axonal protein synthesis | striking decrease | significantly smaller | greater motility | increased number of neurites per neuron | significantly increased axon length; also recorded: effectively increase axon growth | significantly increased axon length; also recorded: effectively increase axon growth | significant increase in axon growth; also recorded: significantly increased axon growth | –
5′ ccacauaggagcugggaauuu 3′ [G3BP1 siRNA] | – | – | – | – | – | – | – | – | – | – | – | – | – | significantly increased axon growth
